Source: patent US20230132973A1, “DIHYDRO-SPIRO[INDOLINE-3:1'-iSOQUINOLIN]-2-ONES AS ANTIMALARIAL AGENTS” (The University of Buea, priority 2020, published 2023)
“Also recorded” adds a separate entry of the source. Where two headings read alike, the source gives them in different places.

What was measured:
[1] = system: CQ-sensitive 3D7 strain of P. falciparum; experiment: SYBR green I-based parasite growth inhibition assay, 3D7 strain; type: cell-based, Plasmodium falciparum; details: for EC50: Plasmodium falciparum
[2] = system: asexual blood stages of P. falciparum; experiment: Life cycle stage specific action by microscopy of Giemsa-stained thin smears; type: cell-based, Plasmodium falciparum; details: 10 μM, 24 h; for stage specific action on asexual blood stages (ring, trophozoite, schizont): treated at early ring, mid-trophozoite or mid-schizont; for vacuolation in treated parasites: Giemsa-stained thin smears
Experimental: The life cycle stage specific action of (±)-moxiquindole was determined by treatment of parasites at different time points followed by microscopic analysis of Giemsa-stained thin blood smears. Stage proportions were calculated for each asexual parasite stage in the drug treated wells relative to the same stage in the negative control wells.
The inhibitory effects of active compounds or reference drugs on parasite development and schizont rupture were determined by quantitative light microscopy as previously described (Lee et al., 2015). Briefly, synchronized cultures (1.5% hematocrit and 3% parasitemia) at different time-points (early rings, mid trophozoites and schizonts) were treated with either test compound or controls at 10 μM final concentration for 24 h under regular culture conditions. Following treatment, Giemsa-stained thin smears were prepared and parasites were counted in 1,000 erythrocytes per treatment. Stage proportions in test wells relative to solvent control wells were calculated and used to assess the in vitro effects of each compound on trophozoites and schizont development as well as merozoite egress and invasion.

[3] = system: vacuolar lipid dynamics in P. falciparum; experiment: Effect on vacuolar lipid dynamics (Oil Red O staining); type: cell-based, Plasmodium falciparum; details: trophozoite stage parasites, 24 h
Experimental: Because cellular vacuolation may result from perturbation of intracellular lipid content, we investigated the effect of (±)-moxiquindole on vacuolar lipid dynamics using fluorescent Oil red O as lipid stain.
The effect of the compounds on intracellular lipid dynamics was assessed by measurement of intracellular lipid content using Oil Red O. Briefly, early rings or late trophozoite stage parasites (30 hpi) were treated with the compounds or controls for 24 h under regular culture conditions. Following treatment, inhibitors were removed by centrifugation at 2500 rpm for 5 min and pellets were washed in equal volumes of 1×PBS. The parasites were fixed with 4% paraformaldehyde for 30 min at room temperature and pelleted at 2500. Three volumes of Oil Red O (ORO) stock solution (5 mg/mL in 100% isopropanol) were diluted in two volumes of distilled water and filtered prior to use. About 100 μL of the ORO were added to parasite pellets in the tube and incubated for 30 minutes. Parasites were pelleted and washed twice in distilled water. Thereafter, parasites were deposited on pre-cleaned coverslips and air dried. Dried coverslips were mounted in DAPI antifade reagent onto cleaned slides, air dried and viewed under a 100× oil immersion lens and images acquired using a Leica DM1000 fluorescence microscope suite (LAS version 4.5).

[4] = system: Malaria parasites (ring-stage parasitized erythrocytes); experiment: Drug-combination (drug-drug interaction) studies, SYBR-Green I; type: cell-based, Plasmodium falciparum; details: in combination with artemisinin
Experimental: In view of the overlapping modes of action between the hybrids and some known antimalarial drugs in terms of targeted cellular processes, we investigated the interaction between these compounds at variable combination ratios. Malaria parasites were continuously cultured and synchronized as earlier described prior to the assay.
Briefly, two-fold drug dilutions were prepared using a variable potency ratio drug combination approach, starting at 5EC50A: 0EC50B to 0EC50A: 5EC50B in serum-free medium, where A and B represent the different partner molecules.
The test was run for 72 h and terminated when the untreated parasites were at the early trophozoite stage of the second cycle. Parasite viability was assessed by the SYBR-Green I fluorescence-based assay as earlier described. Dose-response curves and EC50 values of each combination and drug alone were obtained using GraphPad Prism v.5.0 and Microsoft Excel was used to calculate mean EC50 values and the standard error of the mean.

[5] = system: P. chabaudi-infected mice; experiment: Peter's four-day suppressive test (chemosuppressive activity); type: in vivo, Swiss albino mice
Experimental: Following the encouraging in vitro antiplasmodial activities and cytotoxicity profiles reported above, as well as the ADMET properties of the primary and secondary hits identified in this study, studies were carried out to assess the in vivo efficacy of these compounds in laboratory mice. Chemosuppressive potentials were assessed using the Peter's four-day test whereas the ability of each compound to cure an established plasmodial infection was determined using the Rane's test. To assess the in vivo chemosuppressive potential of the compounds, groups of P. chabaudi-infected mice were treated by ip injection for 3 days following infection using fixed doses of 0.03, 0.3, 3, 10, or 30 mg/kg for each compound. The percent suppression of parasite growth in treated groups was calculated relative to the control group and the growth inhibition curves plotted.
Eight-week old male Swiss albino mice weighing approximately 23±3 g were housed in cages and maintained in a well-ventilated room under standard environmental conditions of temperature at 22-24° C., under a 12 h dark-light cycle, with food and water provided ad libitum.
The animals were allowed one week acclimation before commencement of the study. Three (3) mice were infected with stocked blood containing Plasmodium chabaudi parasites and used as donors. In brief, frozen blood containing the sulfadoxine/pyrimethamine resistant P. c. chabaudi (AS(50S/P) parasites was thawed and about 200 μL parasites were injected intra-peritoneally (i.p) into each of the three mice and parasitemia monitored through blood smear until a 20% threshold was reached. These infected animals then served as donors to the experimental animals. Ethical approval for the study was obtained from the University of Douala Institutional Review Board (N^oIEC-UD/1146/09/2017/A).
In vivo efficacies were conducted following a modification of the Peter's four-day suppressive test as previously described (Lee et al., 2014, Tarkang et al., 2014). Briefly, following parasite passage in donor mice, the mice were euthanized using diethyl ether and P. c. chabaudi infected blood was obtained by cardiac puncture and placed into heparinized tubes. The blood was then diluted with phosphate buffered saline (PBS) and immediately used to infect the experimental mice. Mice were randomly divided into seven (7) groups of 3 animals and each mouse was injected with 1×10^7 infected erythrocytes intraperitoneally (Day 0). The mice were kept for 24 hours to establish infection and Giemsa thin blood smears were prepared to quantify parasites (Day 1). Thereafter, groups 1, 2, 3, 4 and 5 were treated with compounds dissolved in 1×PBS, intraperitoneally at dosages of 30, 10, 3, 0.3 and 0.03 mg/kg body weight, respectively, while groups 6 and 7 were treated with vehicle or chloroquine at 10 mg/kg, respectively for three consecutive days (Day 1-Day 3). Twenty-four (24) and ninety-six (96) hours post-infection, thin blood smears were prepared from each animal with blood obtained from the tail vein, fixed in methanol and stained with 10% Giemsa.
Parasitemia was determined by light microscopy using a 100× objective lens and the following equation: […]
Average percentage chemosuppression was calculated as
Where A is mean parasitemia in negative control and B is mean parasitemia in test group

[6] = system: hemoglobin metabolism in P. falciparum ring and trophozoite stage parasites; experiment: Effect on hemoglobin degradation (intraparasitic hemoglobin content); type: cell-based, Plasmodium falciparum; details: 10 μM, 24 h, relative to E64-treated cultures
Experimental: Owing to the fact that the DSIIQs are constructed from the THIQ pharmacophore of naphthylisoquinolines, which appear to target proteases involved in hemoglobin degradation, we assessed the effect of this DSIIQ on hemoglobin metabolism. Briefly, tightly synchronized ring and trophozoite stage parasites were treated with test compounds for 24 h followed by parasite isolation and quantification of the intraparasitic hemoglobin contents.
To investigate drug effects on hemoglobin degradation, early ring and mid-trophozoite stage parasites (1.5% hematocrit, 5% parasitemia) were co-cultured with the test compounds or experimental controls (0.1% DMSO, chloroquine, artemisinin NITD609 and E64) at a final concentration of 10 μM. The cultures were incubated at 37° C. and 5% CO2 for 24 h. Following incubation, inhibitors were removed by centrifugation at 1800 rpm for 5 min. The pellets were washed in an equal volume of 1×PBS and re-suspended in same volume of 0.1% saponin (in 1×PBS) for 3 min. Isolated parasites were pelleted at 2500 rpm for 5 min and washed twice in an equal volume of 1×PBS. The resulting parasite pellets were permeabilized by treatment in 20 μL of 1% Triton X-100 (in 1×PBS) for 5 min. Intraparasitic hemoglobin content was measured at 550 nm using a Nanodrop spectrophotometer, and folds increase in intra-parasite hemoglobin content was calculated relative to the E64-treated controls.

CCN(CC)CCCC(C)Nc1ccnc2cc(Cl)ccc12 (stereo not drawn) [chloroquine]
EC50 ([1]; 3D7, 72 h): 13.9 nM | stage specific action on asexual blood stages (ring, trophozoite, schizont) [2]: rapid accumulation of early rings and trophozoites but not schizonts; also recorded: exhibits inhibitory activities against ring-to-trophozoite development, trophozoite-to-schizont development and schizont rupture | neutral lipid bodies / vacuolar lipid uptake (Oil red O) [3]: devoid of neutral lipid bodies | combination index (CI) [4]: 1.183 | suppression of parasitemia ([5]; 10 mg/kg, compared with 98% by test compounds at 3.0 mg/kg): comparable level of suppression of parasitemia

COc1cc2c(cc1OC)C1(NCC2)C(=O)Nc2cc(F)c(F)cc21 (stereo not drawn) [Compound 8g, 5,6-difluoro-6′,7′-dimethoxy-3′,4′-dihydro-2′H-spiro[indoline-3,1′-isoquinolin]-2-one]
melting point: 220 to 221 °C

COc1cc2c(cc1OC)C1(NCC2)C(=O)Nc2ccc(F)cc21 (stereo not drawn) [Compound 8o, 5-fluoro-6′,7′-dimethoxy-3′,4′-dihydro-2′H-spiro[indoline-3,1′-isoquinolin]-2-one]
melting point: 98 to 99 °C

COc1cc2c(cc1OC)C1(NCC2)C(=O)Nc2ccc(N)cc21 (stereo not drawn) [Compound 8f, 5-amino-6′,7′-dimethoxy-3′,4′-dihydro-2′H-spiro[indoline-3,1′-isoquinolin]-2-one]
melting point: 186 to 187 °C

COc1cc2c(cc1OC)C1(NCC2)C(=O)Nc2ccc([N+](=O)[O-])cc21 (stereo not drawn) [Compound 8e, 6′,7′-dimethoxy-5-nitro-3′,4′-dihydro-2′H-spiro[indoline-3,1′-isoquinolin]-2-one]
melting point: 174 to 175 °C

C[C@H]1Cc2c([nH]c3cc(Cl)c(F)cc23)[C@@]2(N1)C(=O)Nc1ccc(Cl)cc12 [NITD609]
stage specific action on asexual blood stages (ring, trophozoite, schizont) [2]: exhibits inhibitory activities against ring-to-trophozoite development, trophozoite-to-schizont development and schizont rupture | vacuolation in treated parasites [2]: induced vacuolation in parasites

COc1cc2c(cc1OC)C1(NCC2)C(=O)N(Cc2ccc(Br)cc2)c2ccc(Cl)cc21 (stereo not drawn) [Compound 8k]
parasite growth inhibition in primary assays ([1]; primary screening at 10 μM, Pf 3D7, 72 h): ~52%

COc1cc2c(cc1OC)C1(NC(C)C2)C(=O)Nc2ccc(Cl)cc21 (racemic) [Compound 11, 5-chloro-6′,7′-dimethoxy-3′-methyl-3′,4′-dihydro-2′H-spiro[indoline-3,1′-isoquinolin]-2-one]
times more potent than (±)-moxiquindole ([1]; Pf 3D7): 80 times | fold more active than the primary hit (±)-moxiquindole ([1]; Pf 3D7 EC50 ratio): 77 fold | EC50 ([1]; Pf 3D7, 72 h, read-out: EC50): 24 nM | stage specific action on asexual blood stages (ring, trophozoite, schizont) [2]: exhibits inhibitory activities against ring-to-trophozoite development, trophozoite-to-schizont development and schizont rupture | vacuolation in treated parasites [2]: induced vacuolation in parasites | intraparasitic hemoglobin content / accumulation [6]: accumulation of intra-parasitic hemoglobin | suppression of parasitemia ([5]; 0.3 mg/kg ip): slight advantage over (±)-moxiquindole | suppression of parasitemia ([5]; 3.0 mg/kg ip): 98% | ED50 ([5]; Mus musculus, ip, 72 h, read-out: suppressive ED50): 0.049 mg/kg

CC(C)C[C@H](NC(=O)[C@H]1O[C@@H]1C(=O)O)C(=O)NCCCCN=C(N)N (relative stereo) [Compound E64, L-trans-epoxysuccinyl-leucylamido-(4-guanidino)]
stage specific action on asexual blood stages (ring, trophozoite, schizont) [2]: only inhibiting schizont accumulation | intraparasitic hemoglobin content / accumulation [6]: minimal effect on hemoglobin degradation | neutral lipid bodies / vacuolar lipid uptake (Oil red O) [3]: no effect on vacuolar lipid uptake

C[C@@H]1CC[C@H]2[C@@H](C)C(=O)O[C@@H]3O[C@@]4(C)CC[C@@H]1[C@]32OO4 [Artemisinin, artemisinin]
EC50 ([1]; Pf 3D7, 72 h, read-out: EC50): 15.9 nM | stage specific action on asexual blood stages (ring, trophozoite, schizont) [2]: high proportions of the treated parasite stage at each treatment time-point; also recorded: exhibits inhibitory activities against ring-to-trophozoite development, trophozoite-to-schizont development and schizont rupture | neutral lipid bodies / vacuolar lipid uptake (Oil red O) [3]: no effect on vacuolar lipid uptake
